Results taken from patent publication US6362220B1, “Anticonvulsant derivatives useful in reducing blood glucose levels” (Ortho-McNeil Pharmaceutical, Inc., priority 1999, dated 2002).

Columns and labels:
[1] = retrospective analysis of long term open-label studies in epilepsy: blood glucose; assay type: in vivo, human; conditions: 14 epilepsy patients, overweight (>100 kg) with high blood glucose (>115 mg/dl); study mean daily dosage 622 mg/day, mean duration 689 days
[2] = animal model of kindled epilepsy; cited from earlier work
[3] = several rodent models; cited from earlier work
[4] = human epilepsy; adjunctive therapy or monotherapy; cited from earlier work

CC1(C)O[C@@H]2[C@@H](CO[C@@]3(COS(N)(=O)=O)OC(C)(C)O[C@@H]23)O1 [topiramate, 2,3:4,5-bis-O-(1-methylethylidene)-β-D-fructopyranose sulfamate]
reduction in blood glucose [1]: 5.8%
seizure block in kindled epilepsy model [2]: effectively block seizures
seizure block in rodent models of epilepsy [3]: effectively block seizures
efficacy in treating seizures in clinical trials [4]: effective as adjunctive therapy or as monotherapy
